Reference: article PMC8071423, “A New Pyrimidine Schiff Base with Selective Activities against Enterococcus faecalis and Gastric Adenocarcinoma” (Molecules, 2021)
Converted amounts (≈) assume the structure as drawn. Read-outs that look alike come from different tables or passages of the source. Blank lines part the entries; values can stand above or below the compound they belong to.

Assays:
[1] = tested on: Enterococcus faecalis ATCC 29212; test: Antimicrobial microdilution / modified Richards method; type: cell-based; details: range tested 1024 to 1 ug/mL
[2] = tested on: other cell lines (Caco-2, A172, HeLa, AGS); test: Neutral red uptake assay, other neoplastic cell lines; type: cell-based, human; details: cell lines other than HepaRG; viability decreased at 100–1000 µM; 72 h exposure
Experimental: (§1) L-929 (mouse C3H/An connective tissue), Caco-2 (human colon adenocarcinoma), A172 (human glioblastoma), AGS (human gastric adenocarcinoma), HepaRG (human hepatoma cell), and HeLa (human cervix epithelioid carcinoma) cell lines were obtained from the European Collection of Authenticated Cell Cultures (ECACC) and provided by Sigma Aldrich/Merck (Munich, Germany). All cell lines were cultured in complete mediums prepared according to the ECACC recommendations and incubated in a humidified atmosphere with 5% CO2 at 37 °C. Neutral red uptake assay was performed according to the protocol. 24 h before treatment cells were seeded in 96-well plates in 1 × 10^5 cell/mL of complete medium. After incubation and attachment of cells, the medium was discarded, and test substances dissolved in the fresh medium were added to wells. Samples were tested after 24, 48, and 72 h incubation. A neutral red working solution (40 µg/mL) was prepared and incubated overnight. […] Absorption was measured using a Thermo Scientific™ (Waltham, MA, USA) Multiskan™ GO microplate spectrophotometer at 540 nm. […] Viability was calculated according to the following formula:(1) % Viability=ODtest substance−ODblind/ODnegative control−ODblind×100 Neutral red uptake assay was performed in quadruple (n = 4). Results were calculated to mean ± standard deviation (SD) using Microsoft Office Excel 2007. […]

[3] = tested on: L-929 cell line; test: Neutral red uptake assay, L-929 cell line (primary screening); type: cell-based, mouse; details: normal cell line L-929
Experimental: (§2) L-929 (mouse C3H/An connective tissue), Caco-2 (human colon adenocarcinoma), A172 (human glioblastoma), AGS (human gastric adenocarcinoma), HepaRG (human hepatoma cell), and HeLa (human cervix epithelioid carcinoma) cell lines were obtained from the European Collection of Authenticated Cell Cultures (ECACC) and provided by Sigma Aldrich/Merck (Munich, Germany). All cell lines were cultured in complete mediums prepared according to the ECACC recommendations and incubated in a humidified atmosphere with 5% CO2 at 37 °C. Neutral red uptake assay was performed according to the protocol. 24 h before treatment cells were seeded in 96-well plates in 1 × 10^5 cell/mL of complete medium. After incubation and attachment of cells, the medium was discarded, and test substances dissolved in the fresh medium were added to wells. Samples were tested after 24, 48, and 72 h incubation. A neutral red working solution (40 µg/mL) was prepared and incubated overnight. Immediately before use, it was centrifuged to remove any dye crystals. The medium from wells was aspirated, and 100 µL of neutral red was added to plates and incubated for at least 2 h in 37 °C and 5% CO2 in a humidified atmosphere. To inspect the absorption of neutral red to the lysosomes, microscope visualizations were performed. After incubation, cells were washed with PBS, and destain solution containing ethanol, deionized water, and glacial acetic acid (50:49:1) was added. Plates were shaken rapidly on a horizontal shaker at 37 °C. Absorption was measured using a Thermo Scientific™ (Waltham, MA, USA) Multiskan™ GO microplate spectrophotometer at 540 nm. The negative control was a medium with 1% DMSO, and the positive control was 1 µM staurosporine. Viability was calculated according to the following formula:(1) % Viability=ODtest substance−ODblind/ODnegative control−ODblind×100 Neutral red uptake assay was performed in quadruple (n = 4). Results were calculated to mean ± standard deviation (SD) using Microsoft Office Excel 2007. The viability in negative control was compared to 100%. Statistical analyses were performed using the GraphPad Prism 8.3 for Windows (GraphPad Software, La Jolla, CA, USA, www.graphpad.com). For IC50 results, non-linear regression analyses were performed, and a sigmoidal dose-response curve (variable slope) was fitted. Differences between groups and control were tested using an ANOVA test followed by Dunnett’s post hoc analysis. The significance was set at p ≤ 0.05.

[4] = tested on: HepaRG; test: Neutral red uptake assay, HepaRG; type: cell-based; details: Homo sapiens, 72 h exposure
Experimental: as §1

[5] = tested on: AGS cell line; test: Flow cytometry viability, FDA/PI double staining; type: cell-based, human
Experimental: The flow cytometry analysis was performed to determine cell viability after treatment with a compound showing high proliferation inhibition in neutral red uptake assay. The test is based on FDA’s ability to pass through an intact cell membrane, where it can be hydrolyzed by cytoplasmic esterases to fluorescein, a bright green fluorophore. The protocol was based on a double-staining procedure with FDA and PI [75]. For stock solutions, FDA was dissolved in DMSO and PI in H2O to 1 mM concentrations. Cells were seeded in a 6-well plate with a density of 1 × 10^5 cell/well and maintained at 37 °C under 5% CO2 in a humidified atmosphere. After overnight incubation, cells were treated with a compound diluted to the following concentrations: 100, 80, 40, 10, and 1 µM. Flow cytometry analyses were performed after 24, 48, and 72 h incubation. For the analysis, both floating and adherent cells were collected, centrifuged at 1600 rpm, and washed with PBS. Cells were stained with FDA with a final concentration of 1 µM in PBS, and kept in the dark for 15 min. After incubation, cells were centrifuged, resuspended in ice-cold PBS, and kept on ice until analysis. Directly before testing, samples were stained with a 1 µM PI solution for 2 min. The acquisition was performed with a CyFlow® space flow cytometer, and data analyses were performed using the FloMax software (Partec, Münster, Germany). The percentage of viable cells was calculated based on FDA absorption according to the following formula:(2) % ViabilityFDA=% live cells under experimental conditions/% live cells from negative control×100

[6] = tested on: AGS; test: Neutral red uptake assay, AGS; type: cell-based; details: Homo sapiens, 72 h exposure
Experimental: as §1

[7] = tested on: HeLa; test: Neutral red uptake assay, HeLa; type: cell-based; details: Homo sapiens, 72 h exposure
Experimental: as §1

[8] = tested on: AGS cell line; test: Annexin V/PI staining, flow cytometry; type: cell-based, human; details: 24 h incubation
Experimental: A quantitative analysis of apoptosis was performed by flow cytometry with Alexa Fluor 488 annexin V and PI staining (Thermo Scientific Waltham, MA, USA). Briefly, 3 × 10^5 cells were seeded in 6-well plates. After overnight incubation, the tested compound was added to wells in 5 × IC50 concentration (250 µM). Cells were incubated and tested after 6, 12, 18, and 24 h, according to the manufacturer’s protocol. After incubation, cells were harvested, washed with PBS, and resuspended in 1× binding buffer to a final concentration of 1–5 × 10^6 cell/mL. Then 5 µL of Alexa Fluor 488-annexin V was added to 100 µL of cell suspension and incubated in the dark for 15 min. After incubation, the dye was removed, and cells were suspended in 1 mL of binding buffer. Directly before analysis, cells were incubated with 1 µL PI for 2 min and analyzed by flow cytometry (using CyFlow® Space flow cytometer and FloMax software).

[9] = tested on: AGS cell line; test: Microscopic observation of cell and nucleus morphology, Hoechst 33342; type: cell-based, human; details: 50 µM, 72 h
Experimental: Morphological changes and DNA fragmentation were examined with an Olympus IX53 inverted fluorescence microscope after staining with Hoechst 33342 according to the manufacturer’s recommendations Thermo Scientific (Waltham, MA, USA). Briefly, cells were seeded in 12-well plates with a density of 1 × 10^5 cell/mL. After overnight incubation, the test substance was added in a half-maximal inhibitory (IC50) concentration and incubated for 24, 48, and 72 h. Before microscopic observation, both adherent and floating cells were collected, centrifuged, resuspended in PBS containing 1 µg/mL Hoechst 33342 dye. After 10 min incubation in the dark, the morphology of cells and DNA were visualized using a contrast phase and a UV filter.

[10] = tested on: AGS cell line; test: Comet assay (alkaline single-cell gel electrophoresis), DNA damage; type: cell-based, human; details: 50 µM
Experimental: To evaluate DNA damage induced by incubation with 3, alkaline single-cell gel electrophoresis (comet assay) was performed. Cells were seeded in 12-well plates in a density of 1 × 10^5 cell/well. After overnight incubation, the tested compound in IC50 concentration (50 µM) was added. After incubation, cells were harvested, centrifuged, and resuspended in PBS. The cell suspension was mixed with 1% low melting point agarose and attached to the slide covered with 1% normal melting point agarose. Subsequently, slides were incubated in a buffer (pH 10.0) containing 2.5 M NaCl, 10 mM Tris-HCl buffer, 100 mM EDTA, and 1% Triton X-100 for 1 h. Then samples were transferred to alkaline electrophoresis buffer containing 0.3 M […] and 1mM EDTA for a 20 min incubation followed by electrophoresis performed at 25 V and 300 mA for 20 min. After electrophoresis, samples were incubated with a neutral pH buffer (0.4 M Tris-HCl, pH 7.5) for 10 min and washed with deionized water. After air-drying, samples were stained with Hoechst 33342 and visualized with a fluorescence microscope using a UV filter. The damages were visually scored from 100 randomly selected cells. […] Based on results, the damage index (DI) was calculated according to the following formula:(3) DI=0×n0+1×n1+2×n2+3×n3+4×n4, where n stands for the amount of each class.

[11] = Neutral red uptake assay, L-929 cell line (primary screening); type: cell-based, mouse; details: mouse, L-929 cells, p < 0,05
Experimental: as §2

[12] = tested on: A172; test: Neutral red uptake assay, A172; type: cell-based; details: Homo sapiens, A 172, 72 h exposure
Experimental: as §1

[13] = Enterococcus faecalis ATCC 29212
[14] = Enterococcus faecalis, ATCC29212, Enterococcus faecalis ATCC 29212, read-out: MBC
[15] = Enterococcus faecalis, ATCC29212, Enterococcus faecalis ATCC 29212, read-out: MIC

- MIC [1, 13]: 512 µg/mL (≈ 1190 µM)
- MIC [1, 15]: 1020 µg/mL (≈ 2390 µM)
- IC50 [2]: IC50 was not reached
- melting point: 163 to 164 °C
SMILES: CCOc1ccc(NCc2c(C)nc(-c3ccccc3)nc2Nc2ccc(F)cc2)cc1 [Compound 2, 5-[(4-ethoxyanilino)methyl]-N-(4-fluorophenyl)-6-methyl-2-phenylpyrimidin-4-amine]
- MBC [1, 13]: 1024 µg/mL (≈ 2390 µM)
- MBC [1, 14]: 512 µg/mL (≈ 1190 µM)
- effect on L-929 survival [3]: did not significantly affect L-929 survival
- IC50 [4]: 404 µM

- IC50 ([5]; Homo sapiens, referred to control with 1% DMSO): 53 µM
- IC50 [6]: 50.2 µM
- IC50 [7]: 355 µM
- MIC [1, 13]: 16 µg/mL (≈ 37.5 µM)
- MIC [1, 15]: 32 µg/mL (≈ 75 µM)
SMILES: CCOc1ccc(N=Cc2c(C)nc(-c3ccccc3)nc2Nc2ccc(F)cc2)cc1 [Compound 3, 5-[(4-ethoxyphenyl)imino]methyl-N-(4-fluorophenyl)-6-methyl-2-phenylpyrimidin-4-amine]
- cells in Q3 (unstained) ([5]; 100 µM): 43.72%
- cells in Q4 (PI stained, dead) ([5]; 100 µM): 35.76%
- viability at 1 µM ([5]; Homo sapiens, 1 µM, read-out: cells in Q1 (FDA stained, viable)): 81.5%
- viability at 10 µM ([5]; Homo sapiens, 10 µM, read-out: cells in Q1 (FDA stained, viable)): 66.4%
- viability at 40 µM ([5]; Homo sapiens, 40 µM, read-out: cells in Q1 (FDA stained, viable)): 62.4%
- viability at 80 µM ([5]; Homo sapiens, 80 µM, read-out: cells in Q1 (FDA stained, viable)): 41.8%
- viability at 100 µM ([5]; Homo sapiens, 100 µM, read-out: cells in Q1 (FDA stained, viable)): 20.2%
- MBC [1, 13]: 32 µg/mL (≈ 75 µM)
- MBC [1, 14]: 16 µg/mL (≈ 37.5 µM)
- necrotic cells (stained with PI only) ([8]; 250 µM, control 0.71%): 2.22%
- late apoptotic cells (double-stained) ([8]; 250 µM, control 2.48%): 21.58%
- early apoptotic cells (annexin V stained) ([8]; 250 µM, control 3.24%): 16.18%
- viability at 250 µM ([8]; Homo sapiens, control 93.57%, read-out: viable cells (unstained)): 60%
- cell and nucleus morphology [9]: broke apart into apoptotic bodies
- DNA damage index (DI) ([10]; 48 h, control 52): 183
- DNA damage index (DI) ([10]; 72 h, control 20): 259
- viability at 250 µM ([11]; L-929, 250 µM): 115%
- viability at 500 µM ([11]; L-929, 500 µM): 111%
- viability at 1000 µM ([11]; L-929, 1000 µM): 115%
- IC50 [12]: 526 µM
- IC50 [4]: 313 µM

- melting point: 184 °C
SMILES: Cc1nc(-c2ccccc2)nc(Nc2ccc(F)cc2)c1C=O [Compound 4, 4-(4-fluoroanilino)-6-methyl-2-phenylpyrimidine-5-carbaldehyde]
